Reference: paper PMC9814232, “Structural insights into the potency and selectivity of covalent pan-FGFR inhibitors” (Communications Chemistry, 2022)
pIC50: −log10 of the molar value.

Legend:
[1] = test system: FGFR gatekeeper mutations; details: cited from earlier work
[2] = target: T1, YES (Homo sapiens, UniProt P07947); assay: ADP-Glo kinase inhibition assay, YES; assay type: biochemical; details: for pIC50: kinase activity, ADP-Glo, 10 μM ATP, n = 3
T1 construct: purchased Carna 08-175
Description: (§1) FGFRs, SRC and HCK were prepared as previously described[31]–[33]. […] The primers were synthesized by Tsingke Biotechnolog Co., Ltd., and the sequences were listed in Supplementary Table 2. Then plasmid was transfected into E. coli BL21 (DE3) cells and co-expressed with YOPH to get the non-phosphorylated proteins. Cells were grown in LB at 37 °C and induced for 16 h with 0.5 mM IPTG at 18 °C. Cells were harvested by centrifugation for next purification. All steps of purification were performed at 4 °C. Proteins were first purified by Ni-NTA affinity chromatography, and then 6×His tag was removed by PreScission or TEV protease. […] Anion exchange chromatography (Mono Q) and size exclusion chromatography (SEC) were exploited for further purification. The purified FGFRs proteins were stored in the buffer containing 20 mM tris-HCl pH 8.0, 150 mM NaCl, and 1 mM TCEP, while SRC and HCK proteins in the buffer containing 20 mM tris-HCl pH 8.0, 150 mM NaCl, 5% (v/v) glycerol, and 1 mM TCEP. The purified proteins were concentrated to about 5–15 mg/mL and stored at −80 °C for subsequent studies.
(§2) The ADP-Glo^TM Kinase Assay Kit (Part No #V9101) was purchased from Promega. The experiments were performed according to the manufacturer’s instructions. All kinase inhibition assays were performed with optimized kinase assay buffer consisting of 40 mM Tris-HCl (pH ranging from 7.5 to 8.0), 20 mM MgCl2, 20 mM NaCl, 0.1 mg/mL BSA, 1 mM TCEP, and 4% DMSO[34]. […] Second, 5×ATP plus poly (4:1 Glu, Tyr) peptides (abcam, Part No #ab204877) were added to start the kinase reactions. The final reaction consisted of 0.04 μM kinase, 50 μM Tyr4 peptide and 10 μM ATP in kinase buffer. Then the reactions were terminated by the addition of stop buffer ADP-Glo after half an hour of incubation. […] Finally, […] was measured on a multimode plate reader (Perkin-Elmer) after the addition of detection reagent for half an hour to one hour. IC50 values were determined using a three-parameter log [Inhibitor] versus response model in GraphPad Prism software.

[3] = target: T2, SRC (Gallus gallus, UniProt P00523); assay: ADP-Glo kinase inhibition assay, SRC; assay type: biochemical, chicken; details: for pIC50: kinase activity, ADP-Glo, 10 μM ATP, n = 3
T2 construct: chicken SRC (residues 251−533); 6×His (N, cleaved yes); made in house; host or cells: E. coli BL21 (DE3), co-expressed with YOPH
Description: as §1, §2

[4] = target: T3, FGFR3(V555M) (Homo sapiens, UniProt P22607, V555M); assay: ADP-Glo kinase inhibition assay, FGFR3(V555M) gatekeeper mutant; assay type: biochemical
T3 construct: FGFR3 (residues 450−758); 6×His (N, cleaved yes); made in house; host or cells: E. coli BL21 (DE3), co-expressed with YOPH
T3 sequence (P22607 450-758 V555M): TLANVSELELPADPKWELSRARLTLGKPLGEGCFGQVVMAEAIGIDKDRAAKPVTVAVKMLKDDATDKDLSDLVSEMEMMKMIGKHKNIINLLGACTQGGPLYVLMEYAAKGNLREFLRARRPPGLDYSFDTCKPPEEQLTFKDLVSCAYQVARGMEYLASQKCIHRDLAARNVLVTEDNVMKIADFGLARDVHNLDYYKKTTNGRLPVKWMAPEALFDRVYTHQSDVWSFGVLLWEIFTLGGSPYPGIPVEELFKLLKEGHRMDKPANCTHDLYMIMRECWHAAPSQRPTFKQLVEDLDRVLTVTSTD

[5] = target: T4, HCK (Homo sapiens, UniProt P08631); assay: ADP-Glo kinase inhibition assay, HCK; assay type: biochemical; details: kinase activity, 10 μM ATP, n = 3
T4 construct: human HCK (residues 247−526); 6×His (N, cleaved yes); made in house; host or cells: E. coli BL21 (DE3), co-expressed with YOPH
T4 sequence (P08631 247-526): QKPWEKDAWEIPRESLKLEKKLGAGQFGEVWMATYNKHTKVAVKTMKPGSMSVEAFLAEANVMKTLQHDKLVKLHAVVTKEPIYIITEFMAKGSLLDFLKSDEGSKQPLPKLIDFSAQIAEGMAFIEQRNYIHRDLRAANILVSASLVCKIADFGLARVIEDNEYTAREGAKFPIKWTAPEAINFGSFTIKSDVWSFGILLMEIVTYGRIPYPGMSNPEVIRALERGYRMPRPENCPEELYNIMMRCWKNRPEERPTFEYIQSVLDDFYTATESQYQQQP
Description: as §1, with “The purified proteins were concentrated to about 5–15 mg/mL and stored at −80 °C for subsequent studies.” left out
(§3) The ADP-Glo^TM Kinase Assay Kit (Part No #V9101) was purchased from Promega. […] Finally, […] was measured on a multimode plate reader (Perkin-Elmer) after the addition of detection reagent for half an hour to one hour. IC50 values were determined using a three-parameter log [Inhibitor] versus response model in GraphPad Prism software.

[6] = target: T5, FGFR4 (Homo sapiens, UniProt P22455); assay: ADP-Glo kinase inhibition assay, FGFR4; assay type: biochemical; details: kinase activity, 10 μM ATP, n = 3
T5 construct: FGFR4 (residues 445−753); 6×His (N, cleaved yes); made in house; host or cells: E. coli BL21 (DE3), co-expressed with YOPH
T5 sequence (P22455 445-753): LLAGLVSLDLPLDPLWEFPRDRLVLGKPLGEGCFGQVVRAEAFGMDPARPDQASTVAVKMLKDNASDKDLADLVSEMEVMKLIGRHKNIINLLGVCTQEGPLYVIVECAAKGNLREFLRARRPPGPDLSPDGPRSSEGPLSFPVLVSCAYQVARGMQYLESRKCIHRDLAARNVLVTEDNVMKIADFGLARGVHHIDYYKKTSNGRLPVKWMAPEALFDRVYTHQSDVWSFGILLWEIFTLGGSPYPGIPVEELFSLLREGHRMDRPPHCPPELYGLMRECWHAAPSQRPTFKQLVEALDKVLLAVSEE
Description: as §1, with “The purified proteins were concentrated to about 5–15 mg/mL and stored at −80 °C for subsequent studies.” left out
as §3

[7] = target: T6, FGFR2 (Homo sapiens, UniProt P21802); assay: ADP-Glo kinase inhibition assay, FGFR2; assay type: biochemical; details: kinase activity, 10 μM ATP, n = 3
T6 construct: FGFR2 (residues 453−770); 6×His (N, cleaved yes); made in house; host or cells: E. coli BL21 (DE3), co-expressed with YOPH
T6 sequence (P21802 453-770): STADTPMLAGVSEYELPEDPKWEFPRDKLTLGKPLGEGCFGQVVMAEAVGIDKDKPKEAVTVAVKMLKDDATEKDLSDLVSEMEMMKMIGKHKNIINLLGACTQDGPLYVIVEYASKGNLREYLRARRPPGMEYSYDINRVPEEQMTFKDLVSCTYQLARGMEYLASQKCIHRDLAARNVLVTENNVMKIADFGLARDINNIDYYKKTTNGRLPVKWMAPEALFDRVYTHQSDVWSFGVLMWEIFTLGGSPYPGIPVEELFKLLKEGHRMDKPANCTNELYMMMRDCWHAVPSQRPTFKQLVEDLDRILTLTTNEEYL

[8] = target: T7, FGFR1(V561M) (Homo sapiens, UniProt P11362, V561M); assay: ADP-Glo kinase inhibition assay, FGFR1(V561M) gatekeeper mutant; assay type: biochemical; details: kinase activity, 10 μM ATP, n = 3
T7 construct: human FGFR1 (residues 456−765); 6×His (N, cleaved yes); made in house; host or cells: E. coli BL21 (DE3), co-expressed with YOPH
T7 sequence (P11362 456-765 V561M): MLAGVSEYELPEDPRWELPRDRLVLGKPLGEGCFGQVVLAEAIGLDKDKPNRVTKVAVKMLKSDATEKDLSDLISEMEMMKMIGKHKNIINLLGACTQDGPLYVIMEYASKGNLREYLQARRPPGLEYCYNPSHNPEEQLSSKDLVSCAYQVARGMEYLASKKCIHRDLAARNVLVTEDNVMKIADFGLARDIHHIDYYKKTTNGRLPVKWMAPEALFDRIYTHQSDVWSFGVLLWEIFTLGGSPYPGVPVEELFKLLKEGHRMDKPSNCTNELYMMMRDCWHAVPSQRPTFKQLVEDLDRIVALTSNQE

[9] = target: T8, SRC(C277A) (Gallus gallus, UniProt P00523, C277A); assay: ADP-Glo kinase inhibition assay, SRC(C277A); assay type: biochemical, chicken; details: for pIC50: kinase activity, ADP-Glo, 10 μM ATP, n = 3
T8 construct: chicken SRC (residues 251−533); made in house; host or cells: E. coli BL21 (DE3), co-expressed with YOPH
Description: as §1, §2

[10] = target: T9, FGFR1 (Homo sapiens, UniProt P11362); assay: ADP-Glo kinase inhibition assay, FGFR1; assay type: biochemical; details: kinase activity, 10 μM ATP, n = 3
T9 construct: human FGFR1 (residues 456−765); 6×His (N, cleaved yes); made in house; host or cells: E. coli BL21 (DE3), co-expressed with YOPH
T9 sequence (P11362 456-765): as the sequence (P11362 456-765 V561M) above, with M106V counted along it

[11] = target: T10, FGFR3 (Homo sapiens, UniProt P22607); assay: ADP-Glo kinase inhibition assay, FGFR3; assay type: biochemical; details: kinase activity, 10 μM ATP, n = 3
T10 construct: FGFR3 (residues 450−758); 6×His (N, cleaved yes); made in house; host or cells: E. coli BL21 (DE3), co-expressed with YOPH
T10 sequence (P22607 450-758): as the sequence (P22607 450-758 V555M) above, with M106V counted along it
Description: as §1, with “The purified proteins were concentrated to about 5–15 mg/mL and stored at −80 °C for subsequent studies.” left out
as §3

[12] = target: T11, FGFR2(V564F) (Homo sapiens, UniProt P21802, V564F); assay: ADP-Glo kinase inhibition assay, FGFR2(V564F) gatekeeper mutant; assay type: biochemical
T11 construct: FGFR2 (residues 453−770); 6×His (N, cleaved yes); made in house; host or cells: E. coli BL21 (DE3), co-expressed with YOPH
T11 sequence (P21802 453-770 V564F): as the sequence (P21802 453-770) above, with V112F counted along it

[13] = target: T2, SRC; assay: MALDI-TOF MS covalent adduct formation, SRC; assay type: binding, chicken; details: protein:inhibitor 1:2, overnight, 4 °C
Description: as §1

[14] = target: T12, FGFR4(V550L) (Homo sapiens, UniProt P22455, V550L); assay: ADP-Glo kinase inhibition assay, FGFR4(V550L) gatekeeper mutant; assay type: biochemical; details: for pIC50: kinase activity, ADP-Glo, 10 μM ATP, n = 3
T12 construct: FGFR4 (residues 445−753); 6×His (N, cleaved yes); made in house; host or cells: E. coli BL21 (DE3), co-expressed with YOPH
T12 sequence (P22455 445-753 V550L): as the sequence (P22455 445-753) above, with V106L counted along it

[15] = test system: advanced solid tumors; details: pretreated patients with advanced solid tumors, phase 1 dose-escalation; cited from earlier work
[16] = kinase activity, ADP-Glo, 10 μM ATP, n = 3

T1 sequence (P07947 whole entry): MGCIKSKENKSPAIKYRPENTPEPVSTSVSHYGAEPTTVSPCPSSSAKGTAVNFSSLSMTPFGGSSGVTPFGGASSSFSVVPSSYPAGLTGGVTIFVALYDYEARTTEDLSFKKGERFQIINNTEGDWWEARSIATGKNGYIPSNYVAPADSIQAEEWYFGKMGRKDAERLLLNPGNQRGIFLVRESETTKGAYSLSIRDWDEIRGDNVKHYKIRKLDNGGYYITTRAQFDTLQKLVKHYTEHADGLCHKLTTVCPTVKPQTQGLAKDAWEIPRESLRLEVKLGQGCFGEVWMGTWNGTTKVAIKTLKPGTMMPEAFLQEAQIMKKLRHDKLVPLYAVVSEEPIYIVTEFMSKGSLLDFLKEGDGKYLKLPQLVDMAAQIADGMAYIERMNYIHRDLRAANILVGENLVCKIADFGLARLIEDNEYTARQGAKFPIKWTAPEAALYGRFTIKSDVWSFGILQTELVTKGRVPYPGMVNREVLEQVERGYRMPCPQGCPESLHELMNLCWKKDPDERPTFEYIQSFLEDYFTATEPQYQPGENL

## CCN1CCN(c2ccc(Nc3cc(N(C)C(=O)Nc4c(Cl)c(OC)cc(OC)c4Cl)ncn3)cc2)CC1 [BGJ398, 3-(2,6-dichloro-3,5-dimethoxy-phenyl)-1-{6-[4-(4-ethyl-piperazin-1-yl)-phenylamino]-pyrimidin-4-yl}-1-methyl-urea]
[1]
  potency against FGFR gatekeeper mutations (in words): little potency

## C=CC(=O)Nc1ccc(CN2C(=O)N(c3cc(OC)cc(OC)c3)Cc3cnc(Nc4ccc(N5CCN(C)CC5)cc4)nc32)cc1 [FIIN-2]
[2]
  pIC50: 6.44
[3]
  pIC50: 6.48
[4]; IC50 mutant relative to wild-type FGFR3
  fold reduction of potency, FGFR3(V555M) vs wild type: 15 fold
[4]; [16]
  pIC50: 7.01
[5]
  pIC50: < 5.30
[6]
  pIC50: 7.68
[7]
  pIC50: 8.54
[8]
  pIC50: 6.67
[9]
  pIC50: < 5.30
[9]; kinase assay
  potency against SRC(C277A) (in words): lost their potency
[10]
  pIC50: 8.19
[11]
  pIC50: 8.17
[12]; IC50 mutant relative to wild-type FGFR2
  fold decrease in potency, FGFR2(V564F) vs wild type: 95 fold
[12]; [16]
  pIC50: 6.56
[13]
  mass shift of SRC protein (covalent adduct): mass shifts were observed
[14]; IC50 mutant relative to wild-type FGFR4
  fold decrease in potency, FGFR4(V550L) vs wild type: 12 fold
[14]
  pIC50: 6.59

## C=CC(=O)N1CCN(CCCn2c(=O)c(-c3c(Cl)c(OC)cc(OC)c3Cl)cc3cnc(NC)nc32)CC1 [PRN1371, 8-(3-(4-Acryloylpiperazin-1-yl)propyl)-6-(2,6-dichloro-3,5-dimethoxyphenyl)-2-(methylamino)pyrido[2,3-d]pyrimidin-7(8H)-one]
[2]
  pIC50: < 5.30
[2]; kinase assay
  potency against YES (in words): negligible potency
[3]
  pIC50: < 5.30
[3]; kinase assay
  potency against SRC (in words): negligible potency
[5]
  pIC50: < 5.30
[6]
  pIC50: 7.50
[9]
  pIC50: < 5.30
[1]
  potency against FGFR gatekeeper mutations (in words): little potency
[14]
  pIC50: < 6.00
[14]; kinase assay
  effect on FGFR4(V550L) (in words): little effect

## C=CC(=O)N1CC[C@H](n2nc(C#Cc3cc(OC)cc(OC)c3)c3c(N)ncnc32)C1 [TAS-120]
[15]
  most common adverse events: hyperphosphatemia, diarrhea and constipation
